One may read the melting point as the temperature of the solid-liquid transition.

As for `CC12CCC(=O)C=C1CCC1C3CC(OCC(=O)c4ccccc4)C(O)(C(=O)CO)C3(C)CC(O)C12F` (stereo not given), the melting point lay in the range of 228 to 230 °C.

`OCC1CCn2c(cc3ccccc32)C1` (stereo not given) yielded a melting point of 110 to 111 °C.

As for `COc1cc2ncc(C#N)c(Nc3cc(Br)c(O)c(Br)c3)c2cc1OC`, the melting point is greater than 250 °C.

For `c1ccc(C(OC2CCN(c3ccc4ncnn4n3)CC2)c2ccccc2)cc1`, the melting point was 137 to 139 °C.

`CCCN(CCC)Cc1nc(-c2ncn3c2[C@@H]2CCCN2C(=O)c2cc(F)ccc2-3)no1` yielded a melting point of 222 to 225 °C.

`COC(=O)C(C)Oc1ccccc1S(=O)(=O)NC(=O)Nc1nc(C)cc(C)n1` (stereo not given) had a melting point of 200 to 203 °C.

Turning to `COc1ccc2nc(NC(=O)C(CC3CCCC3)c3ccc(S(=O)(=O)N4CCOCC4)cc3)sc2n1` (stereo not given), the melting point lay in the range of 120 to 123 °C.

As for `O=C1c2ccccc2S(=O)(=O)N1/C=C/CSc1nnnn1-c1ccccc1`, the melting point was 191 to 193 °C.

`NC(=O)N1C(=O)C(C(=O)c2ccoc2)c2ncc(Cl)cc21` (stereo not given) displayed a melting point greater than 250 °C.

Turning to `Cc1ccc(S(=O)(=O)ON=C2C3=C(C=C4OCCC42)CCCO3)cc1` (stereo not given), the melting point was determined as 118 °C.

Turning to `Cc1ccc(OC2=C(Oc3ccc(C)c(C)c3)C(F)(F)C(F)(F)C2(F)F)cc1C`, the melting point lay within 65 to 67 °C.

Consider `Cc1ccc(-c2nc(-c3cnccc3C)sc2F)cc1`, for which the melting point came to 96 °C.

Consider `O=[N+]([O-])c1ccc(C(O)CSCc2ccncc2)cc1` (stereo not given), for which the melting point fell in the range of 135 to 137 °C.

On to `CC(=O)NC(Cc1cccc(C(=O)OC(C)(C)C)c1)C(=O)OCc1ccccc1` (stereo not given), for which the melting point is 164 to 166 °C.

The compound `C=CC(C)=CC=CC(C)=CC(=O)OCC` had a melting point of 52 to 53 °C.

Regarding `CC(=O)Nc1ncc(Sc2nnnn2C)s1`, the melting point was 208 to 210 °C.

Regarding `COc1ccc(F)cc1C(C)(C)CC(O)(CN1CC(C)NC(C)C1)C(F)(F)F` (stereo not given), the melting point is 61 to 62 °C.

`COP(=O)(Cc1cc(C(C)(C)C)c(O)c(C(C)(C)C)c1)C1CCCCC1` (stereo not given): the melting point lay in the range of 149 to 150 °C.

The compound `CCCn1c(=O)c2c(nc(C=Cc3ccc(C(=O)OC)cc3OC)n2C)n(CCC)c1=O` registered a melting point of 198 to 200 °C.

On to `CON=C(C)c1ccc2nnn(Cc3ccc4ncccc4c3)c2n1`, for which the melting point is 155 to 157 °C.

The compound `COc1ccc(O)c(C(=O)Nc2ccccc2C(=O)NCCCC(=O)O)c1` displayed a melting point of 191 to 193 °C.

For `N#Cc1ccc(-c2cccc(OS(N)(=O)=O)c2)cc1Cn1cncn1`, the melting point lay in the range of 137 to 138 °C.

As for `COC(=O)[C@@H]1CSSCC(C)(C)C(=O)N1`, the melting point was in the range of 87 to 89 °C.

Compound `COc1ccc(Cl)cc1-c1c(Sc2ncccn2)c(=O)[nH]c2ccc(C(F)(F)F)cc12` gave a melting point of 302 to 303 °C.

The compound `COC1(c2cc(F)cc(S(=O)(=O)c3ccc(/C(C)=N/O)cc3)c2)CCOCC1` gave a melting point of 180 to 181 °C.

Compound `CCCN(C(=O)OC(C)(C)C)C1CC=C(c2c[nH]c3cc([N+](=O)[O-])ccc23)CC1` (stereo not given) had a melting point of 214 to 216 °C.

The compound `CC(c1ccc(Cl)cc1)N(O)C(N)=O` (stereo not given) had a melting point of 125 to 128 °C.

The compound `Cc1ccc(C(=O)NCC(N)=O)cc1-c1cccc2cc(Cc3cccc(C(F)(F)F)c3)sc12` displayed a melting point of 165 to 166 °C.

In turn, `CCCCc1c(/C=C/c2ccccc2OCC)nc2ccc(C(=O)O)cn2c1=O` yielded a melting point of 265 to 268 °C.

As to `O[C@@H]1c2ccccc2C=C[C@H]1N1CCCC1` (relative stereo), the melting point lay within 140 to 141 °C.

`O=C(CC12CC3CC(CC(C3)C1)C2)Nc1ccc(O)cc1Cl` came in with a melting point of 224 to 225 °C.

With `CCSC1=NCC(=O)N1c1ccc(F)cc1`, the melting point was 114 to 115 °C.

Compound `Cn1c2cccc(C#N)c2c2nc3ccccc3nc21` yielded a melting point of 237 °C.

The compound `Cc1cc(F)ccc1-c1nc(OCC(N)S(C)(=O)=O)nc2c1ccc(=O)n2-c1c(F)cccc1F` (stereo not given) gave a melting point of 95 to 99 °C.

As to `COC(=O)CC(NC(C)=O)c1ccccc1` (stereo not given), the melting point was 58 to 67 °C.

`CCNC(=O)c1sc(Cl)cc1[Si](C)(C)C` returned a melting point of 105 to 108 °C.

`Cc1c(C(=O)c2ccccc2)ccc(O)c1CC(=O)O`: the melting point was found to be 212 °C.

The compound `O=C(OCc1ccccc1)N1CCN(C(=O)C(Cc2ccc(O)cc2)NS(=O)(=O)c2cccc3cnccc23)CC1` (stereo not given) yielded a melting point of 137 to 141 °C.

`Cn1c(=O)cc(-c2nc(-c3ccccc3)cs2)c2cc(C(O)c3ccc(Cl)cc3)ccc21` (stereo not given) gave a melting point of 192 °C.

The compound `COc1ccc(F)c(C(N)=O)c1` yielded a melting point of 122 to 124 °C.

In turn, `COc1cc2c(c3c1OC(C)(C)C3)C(c1cccc(-c3cncnc3)c1)=NC(C)(C)C2` registered a melting point of 141 to 143 °C.

For `Nc1nc(C#Cc2ccccc2)cc(-c2ccccc2)n1`, the melting point lay within 136 to 138 °C.

For the compound `NCc1cc(=O)[nH]c(=O)[nH]1`, the melting point is 295 to 297 °C.

As to `CN(C)c1ccc(NC(=O)N(C[C@H]2CC[C@H](CN(C(=O)Nc3ccc(N(C)C)cc3)C3CCCCC3)CC2)C2CCCCC2)cc1`, the melting point is 128 to 131 °C.

Turning to `CC(CO)NC(=O)COc1ccc(CCNS(=O)(=O)c2ccccc2)cc1` (stereo not given), the melting point lay in the range of 90 to 91 °C.

As to `O=C1CCC(CCC(=O)OCc2ccccc2)N1` (stereo not given), the melting point fell in the range of 79 to 80 °C.

`NC1=CCC(c2nc3c(-c4cnn(-c5ccc(F)cc5)c4)cccn3n2)(C2CCNCC2)C=C1` (stereo not given) came in with a melting point of 245 to 247 °C.

For `O=C1C2=C(CCCC2)C(=O)N1c1ccc(Br)c(O)c1`, the melting point is 247 to 248 °C.

For `FC(F)(F)c1ccc(-n2nnnc2Nc2ccc(C(F)(F)F)cc2Cl)cc1`, the melting point stood at 116 °C.

`CCCn1nc2c(N)nc3ccccc3c2c1CC(C)(C)S(C)(=O)=O`: the melting point lay in the range of 202 to 204 °C.

`COC(=O)c1ccc2oc3c(c(=O)c2c1)CCC3=Cc1ccccc1C`: the melting point lay within 203 to 205 °C.

Consider `CS(=O)(=O)n1c(=NC(F)(F)F)oc2ccccc21`, for which the melting point fell in the range of 142 to 146 °C.

In turn, `O=C(CN1CCN(CC(=O)N2CCC3(CC2)Cn2cc([N+](=O)[O-])nc2O3)CC1)Nc1ccc(C(F)(F)F)cc1` registered a melting point of 133 to 135 °C.

Take `CON=Cc1nn(-c2c(Cl)cc(C(F)(F)F)cc2Cl)c(N)c1SC(F)(F)F`: the melting point fell in the range of 129 to 132 °C.

Take `O=C(CCCc1c[nH]c2ccccc12)NCc1ccccc1`: the melting point lay within 132 to 133 °C.

Regarding `COC1=C(OC)C(=O)C2=C(CCC(CCOc3ccc4ccccc4n3)CC2)C1=O`, the melting point was in the range of 134 to 136 °C.

Compound `O=C(NC(C(=O)O)C(=O)O)OCc1ccccc1` gave a melting point of 144 to 145 °C.

In turn, `NC(N)=Nc1nc(-c2cccc(-c3n[nH]c(N)n3)n2)cs1` yielded a melting point greater than 300 °C.

Compound `CCCCCCCNC(=O)Nc1ccccc1C(=O)NC1CCCN(C(c2ccccc2)c2ccccc2)C1` (stereo not given) gave a melting point of 112 °C.

Compound `CCCCOC(=O)c1cc2cccc(O)c2[nH]1` returned a melting point of 150 to 151 °C.

Take `Cc1cc(-n2cc(-c3ccc(S(C)(=O)=O)cc3)nc2C)cc2ccc(=O)[nH]c12`: the melting point lay in the range of 345 to 347 °C.

For `CCOC(=O)Cc1ccc(NC(=O)C(COS(C)(=O)=O)NS(=O)(=O)c2ccc(F)cc2)cc1` (racemic), the melting point lay within 81 to 82 °C.

Consider `CN1C(=O)CCC2(CCC(=O)c3ccccc32)C1=O` (stereo not given), for which the melting point is 136 to 138 °C.

The compound `CCOC(=O)C1=C(C)NC(C)=C(C#N)C1c1ccnc2ncc(-c3ccccc3)cc12` (stereo not given) had a melting point of 265 °C.

In turn, `CCCCCCCCOC(=O)c1nc(Cl)c(Cl)nc1N` gave a melting point of 85 °C.

`OCCCOc1nc(N2CCCCC2)c2nc(OCCCO)nc(N3CCCCC3)c2n1` registered a melting point of 154 to 156 °C.

In the case of `COc1ccc(C2(CC(=O)O)CNC(=O)C2)cc1OC` (stereo not given), the melting point is 162 to 165 °C.

Compound `CS(=O)(=O)OCC1(COc2ccc(Br)cc2)COC1` gave a melting point of 89 to 91 °C.

Regarding `OC1c2ccccc2CCC12CCCCN2` (stereo not given), the melting point was 125 to 127 °C.

Turning to `COc1ccc(N2CCOCC2)c2sc(C(N)=S)nc12`, the melting point was 238 °C.

Consider `Cc1c(C)c(N2CCN(c3ccc(S(C)(=O)=O)cc3)CC2)c(C)c2c1OC(C)(C)C2`, for which the melting point lay within 256 to 260 °C.

`O=C1Cc2cc(I)ccc2N1` yielded a melting point of 190 to 192 °C.

On to `O=C(O)c1ccc(COc2ccc3cc(-c4ccc(-c5ccccc5)n4-c4ccccc4)ccc3c2)cc1`, for which the melting point was 309 to 310 °C.

The compound `O=c1c(Cc2ccccc2)c(O)c2cccc3c2n1C(c1ccccc1)C3` (stereo not given) yielded a melting point of 252 to 254 °C.

The compound `O=C1CCCCc2ccc(N3C[C@H](CO)OC3=O)cc21` returned a melting point of 144 to 146 °C.

As to `Cc1cc2c(-c3cccc(Br)c3)c(CC(=O)Nc3ccc(F)cc3C(F)(F)F)c(=O)oc2cc1Cl`, the melting point lay within 222 to 223 °C.

As for `O=C(O)C(=O)CC(=O)c1ccnn1Cc1ccc(F)cc1`, the melting point was in the range of 157 to 159 °C.

In turn, `CC(C)NS(=O)(=O)Cc1ccc(N)cc1` yielded a melting point of 105 to 107 °C.

Take `C#CC(O)c1csc(C)n1` (stereo not given): the melting point came to 94 °C.

Turning to `Cc1[nH]c(=O)c(-c2csc(-c3ccnc(NCc4ccccn4)c3)n2)cc1C(=O)NCc1ccccn1`, the melting point is greater than 260 °C.

`CC(CS)C(=O)Nc1cc(C(=O)O)ccn1` (stereo not given) came in with a melting point of 247 to 248 °C.

Take `Nc1ccc(Cl)cc1C(=O)c1ccc(O)cc1`: the melting point was in the range of 170 to 175 °C.

For `COc1cccc2c(CCCCN(C3CCC3)C3COc4c(F)ccc(C(N)=O)c4C3)coc12` (stereo not given), the melting point lay in the range of 122 to 127 °C.

`FC(F)(F)c1ccc2sc(CCl)nc2c1` gave a melting point of 52 °C.

Compound `COc1ccc(OC)c2c1C(=O)c1c(C)oc(C)c1C2=O` registered a melting point of 227 to 228 °C.

In turn, `Cc1cc(Nc2nc(Nc3ccc(N)cc3)nc3ccccc23)[nH]n1` had a melting point of 164 to 167 °C.

The compound `CCCCC(C(O)c1ccc(Cl)cc1)n1cncn1` (stereo not given) registered a melting point of 93 to 94 °C.

Consider `O=C(NCc1ccc(Cl)cc1)c1ccc2cnccc2n1`, for which the melting point is 110 to 111 °C.

The compound `O[C@@H](COc1cccc(-c2noc3ccsc23)c1)CN1CCN(c2ccccc2)CC1` came in with a melting point of 127 to 129 °C.

On to `CCCCCCCCc1ccc(C=Nc2ccc(C#N)cc2)cc1`, for which the melting point was 32.5 to 32.8 °C.

The record behind these values is a melting point compilation (Tetko et al.; mined from patent text by program, amines drawn as free bases though some values may be those of a salt).
